Results from ChEMBL document CHEMBL1147778, “Development and evaluation of a pharmacophore model for inhibitors of aldosterone synthase (CYP11B2)” (Bioorg Med Chem Lett, 2006).

How the values were obtained:
Homo sapiens = species: Homo sapiens; assay: Selectivity for human CYP11B1 over CYP11B2
[1] = target: T1, Cytochrome P450 11B1, mitochondrial (Homo sapiens, UniProt P15538); assay: Inhibition of human CYP11B1 expressed in V79 hamster fibroblasts
T1 sequence (P15538 whole entry): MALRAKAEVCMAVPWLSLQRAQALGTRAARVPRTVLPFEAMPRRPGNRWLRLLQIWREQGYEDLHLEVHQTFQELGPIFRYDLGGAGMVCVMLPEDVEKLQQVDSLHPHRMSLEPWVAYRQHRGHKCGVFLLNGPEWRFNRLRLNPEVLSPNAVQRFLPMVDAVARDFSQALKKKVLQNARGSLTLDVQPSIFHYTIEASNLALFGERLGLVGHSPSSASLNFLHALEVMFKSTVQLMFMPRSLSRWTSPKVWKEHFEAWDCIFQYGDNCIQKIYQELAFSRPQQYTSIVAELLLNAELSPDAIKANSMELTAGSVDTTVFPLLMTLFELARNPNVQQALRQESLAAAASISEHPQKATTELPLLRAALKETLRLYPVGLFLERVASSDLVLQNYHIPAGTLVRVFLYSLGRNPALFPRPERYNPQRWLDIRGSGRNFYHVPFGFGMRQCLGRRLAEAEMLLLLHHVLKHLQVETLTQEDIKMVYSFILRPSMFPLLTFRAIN

[2] = target: T2, Cytochrome P450 11B2, mitochondrial (Homo sapiens, UniProt P19099); assay: Inhibition of aldosterone synthase (CYP11B2) expressed in V79 hamster fibroblasts
T2 sequence (P19099 whole entry): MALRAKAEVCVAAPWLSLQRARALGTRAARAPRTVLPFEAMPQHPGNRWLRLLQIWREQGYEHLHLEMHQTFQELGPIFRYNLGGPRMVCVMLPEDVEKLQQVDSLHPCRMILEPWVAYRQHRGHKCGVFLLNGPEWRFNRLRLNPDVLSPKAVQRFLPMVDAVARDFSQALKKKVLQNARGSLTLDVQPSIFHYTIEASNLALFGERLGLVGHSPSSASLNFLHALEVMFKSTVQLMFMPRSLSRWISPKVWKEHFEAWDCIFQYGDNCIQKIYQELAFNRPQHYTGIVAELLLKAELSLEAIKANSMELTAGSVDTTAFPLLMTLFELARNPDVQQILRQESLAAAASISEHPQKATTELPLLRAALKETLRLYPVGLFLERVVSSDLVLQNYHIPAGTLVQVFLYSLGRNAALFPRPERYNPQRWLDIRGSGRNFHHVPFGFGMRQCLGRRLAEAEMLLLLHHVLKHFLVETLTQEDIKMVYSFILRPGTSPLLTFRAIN

## c1cncc(-c2ccc3cccc4c3c2CC4)c1
Homo sapiens
  Ratio IC50: 245

## c1cncc(-c2ccc3c4c(cccc24)CC3)c1
[1]
  IC50: 2900 nM
[2]
  IC50: 14 nM
Homo sapiens
  Ratio IC50: 207
